# Assay: gradient 5% acetonitrile 3 min, to 50% in 2 min, to 85% in 15 min, held 3 min, 100 µL/min
# Settings: column: Zorbax Extend-C18 2.1 x 50 mm; eluents: water / acetonitrile, 0.1% formic acid
# Summary of the method: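 In both positive and negative ionization mode, a quadrupole time-of-flight mass spectrometer coupled to HPLC analyzed pure standards run in mixtures of ~100 molecules. The Zorbax Extend-C18 column (2.1 × 50 mm, 1.8 μm) was operated at 100 μL/min with water and acetonitrile, each containing 0.1% formic acid. The dead volume was 40 μL and the dwell volume 900 μL. Retention time came from adduct peaks that were computationally picked and individually inspected by hand.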
row,Compound,RP-LC retention time [s]
1,Cc1ccc(NC(=O)CSc2nccc(N3CCCCCC3)n2)cc1F,738
2,CC(C)NC(=O)c1ccc(-c2nc3cc(NS(=O)(=O)c4ccc(F)cc4)ccc3n2C)cc1,684
3,CCc1nc(-c2cccc(C)c2)c(-c2ccnc(NC(=O)c3ccccc3)c2)s1,1200
4,COCCNc1c(-c2ccc(C)cc2)nc2sc(C(=O)N(C)C)c(C)n12,698
5,Cc1ccc(NC(=O)C2CCCN(S(=O)(=O)c3c[nH]c(C(=O)N4CCCC4)c3)C2)cc1 (stereo unspecified),850
6,CCN1CCCn2cc(S(=O)(=O)N(CC)c3ccccc3)cc2C1=O,780
7,COC(=O)c1c(C)c(C(=O)C(C)N(CCC(C)C)C(=O)c2cccc(F)c2)c(C)n1C (stereo unspecified),1100
8,Cc1nc(-c2nnn(-c3ccccc3)c2C)no1,769
9,O=C(NC1CC1)C1CCN(C(=O)c2ncn3c2COC(c2ccc(F)cc2)C3)CC1 (stereo unspecified),630
10,CC(C)CC(NC(=O)Cc1ccccc1F)C(=O)Nc1nc2ccccc2[nH]1 (stereo unspecified),740
11,CCOC(=O)c1ccc2nc(C(F)(F)F)nc(NCCc3ccc(OC)c(OC)c3)c2c1,1140
12,O=C(COc1ccc(Cl)cc1)Nc1cccc2c1C(=O)NC2=O,854
13,CC(=O)c1ccc(NC(=O)N(C)C)cc1,588
14,Cc1ccc(CNC(=O)c2ccc(NC(=O)C3CC3)cc2N2CCOCC2)o1,768
15,CCNc1cc(N2CCCC(CCC(=O)NCCN3CCCCC3)C2)ncn1 (stereo unspecified),551
16,Cn1cc(C2=CCN(S(=O)(=O)c3cccc4nsnc34)CC2)c2cccnc21,893
17,Cc1nc(-c2cc(S(=O)(=O)Nc3ccc(F)c(F)c3)c(C)s2)sc1C,1100
18,CC1Cc2ccccc2N1C(=O)C1CCN(C(=O)c2cc(-c3ccncc3)n[nH]2)CC1 (stereo unspecified),645

row,Compound,RP-LC retention time [s]
1,Cc1ccc(Nc2nc3ccncc3n(Cc3ccccc3)c2=O)cc1,778
2,Cc1ccc(-c2csc(-c3cccn3CC(=O)N3CCCC3)n2)cc1,1070
3,O=C(NCc1ccc(Cl)cc1)C1CCN(c2cc(N3CCOCC3)ncn2)CC1,663
4,CC1(C(=O)NCCCN2CCc3ccccc3C2)CCCCC(=O)N1 (stereo unspecified),578
5,Cc1ccc(C(=O)Nc2cnn(-c3ncncc3N3CCC(C)CC3)c2)s1,909
6,O=C(CCc1nc(-c2ccc(N3CCCC3)cc2)no1)NCc1ccc2c(c1)OCO2,979
7,Cc1ccc(Cn2c(N3CCCC(C(=O)Nc4ccc(F)cc4)C3)nc3ccsc3c2=O)cc1 (stereo unspecified),1060
8,Cc1cc(C)cc(C(=O)N2CCC3(CC2)NC(=O)c2cc(F)ccc2N3C)c1,787
9,Cc1cccc(Cl)c1NC(=O)CSc1ccc(N2CCCC(C(=O)NC3CC3)C2)nn1 (stereo unspecified),698
10,O=S1(=O)CCN(c2ccccc2CC(c2c[nH]c3ccccc23)c2c[nH]c3ccccc23)CC1,964
11,O=C(CNC(=O)c1ccc2c(c1)OCO2)Nc1nc2ccccc2[nH]1,611
12,Cc1ccc(C)c(NC(=O)c2cc3c(=O)n(CC(C)C)ccc3n2C)c1,884
13,CN(C)CCn1c2c(c(SCC(=O)Nc3cccc(Cl)c3)nc1=O)CCC2,651
14,O=C1CCCc2nc(Nc3nc(-c4ccccc4)c4cc(Cl)ccc4n3)ncc21,922
15,O=c1c2c(CO)c(-c3ccccc3)nn2ccn1CCOc1ccccc1,752
16,Fc1cccc(-c2nnc3sc(-c4ccc5ccccc5n4)nn23)c1,1180
17,Cc1[nH]c2ccc(-c3nnc(SCC(=O)NCc4nc5ccccc5[nH]4)o3)cc2c1C,642
18,CC(NC(=O)Nc1ccccc1C(F)(F)F)C(=O)N1CCc2ccccc21 (stereo unspecified),907
